Measured values published in patent US6991937B2, “Urine cystine quantitation and supersaturation assay” (Litholink Corporation, priority 2001, dated 2006).
Marks after values point to notes of the source that are not given here.

What was measured:
[1] = Dissolution of solid phase cystine by cystine binding drugs in incubation buffer; settings: for Regression slope of cystine uptake on drug molarity, BUFFER: incubation buffer, 48 hours, 37° C.
Experimental: (§1) Using the same incubation buffer and cystine-dissolving agent systems as for the initial solid phase dissolution assay given in Example 1, increasing amounts of D-penicillamine, tiopronin, or captopril were added to 25 ml aliquots of the incubation buffer. A fixed amount of cystine was added; for tiopronin and D-penicillamine, about 40 mg, and for captopril about 20 mg. […] Incubation was carried out as in Example 1. After 48 hours, the pellet and supernatant were separated by centrifugation, the pellet was dissolved in 25 ml of cystine-dissolving agent, an alkalinizing buffer of 0.1 M sodium carbonate, pH 9.9, (Sigma Aldrich Corp, Catalog # S-7795), to form a final cystine solution. Cystine concentration was determined both in the supernatant and the final cystine solution according to the procedure given in Example 3. This same protocol was repeated using the ten normal urine samples employed in the basic solid phase dissolution study described in Example 1.
(§2) Cystine concentrations in either the incubation buffer or normal urine after removal of the residual solid phase cystine, or the final cystine solution after the dissolution of the solid phase cystine in a cystine-dissolving agent as shown in Example 1 and 2 were measured using the modified cyanide-nitroprusside method for quantifying urinary cystine concentration as reported by Nakagawa and Coe (Nakagawa, Y. and Coe, F. 1999. Clin Chim Acta 289:57–68). A 100 microliter aliquot was mixed with 400 microliters of water and 1 milliliter of 0.01 M sodium phosphate buffer containing 0.15 mol/liter NaCl, pH 7.3 (PBS). After adding 300 microliters of 10% NaCN aqueous solution (w/v), the sample was incubated for twenty minutes at room temperature. Color was developed by adding 100 microliters of 20% sodium nitroprusside aqueous solution (w/v). Within 20 seconds of the sodium nitroprusside addition, color intensity was then measured at 521 nm using a Beckman spectrophotometer (model DU 640), and cystine concentration was calculated by comparison to a standard curve which was prepared with each assay.
(§3) Routine means and t tests and linear regression analysis used standard statistical software (Systat, SPSS Corp., Chicago, Ill.). Differences in slopes of uptake with drugs were assessed by multivariate analysis in which cystine uptake was the dependent variable; drug molarity, the independent variable; either buffer vs urine or drug type, the categorical variable; and probability of homogeneity of slopes between the groups, defined by the categorical variable tested. Simple regression analysis was used to obtain the actual values of the slopes.

[2] = Dissolution of solid phase cystine by cystine binding drugs in normal urine; parameters: species or system human; settings: for molar proportion of cystine dissolved per drug, urine: normal urine; for Regression slope of cystine uptake on drug molarity, URINE: ten normal urine samples, 48 hours, 37° C.
Experimental: as §1, §2, §3

[3] = general statement; cited from earlier work

## CC(C)(S)[C@@H](N)C(=O)O [D-penicillamine]
[1]
  molar proportion of cystine dissolved per drug, buffer: 0.24±0.01 mole/mole
  Regression slope of cystine uptake on drug molarity, BUFFER: 0.25 ± 0.01
[2]
  molar proportion of cystine dissolved per drug, urine: 0.21±0.008 mole/mole
  Regression slope of cystine uptake on drug molarity, URINE: 0.21 ± 0.01

## C[C@H](CS)C(=O)N1CCC[C@H]1C(=O)O [captopril]
[1]
  molar proportion of cystine dissolved per drug, buffer: 0.36±0.04 mole/mole
  Regression slope of cystine uptake on drug molarity, BUFFER: 0.36 ± 0.04#
[2]
  molar proportion of cystine dissolved per drug, urine: 0.35±0.01 mole/mole
  Regression slope of cystine uptake on drug molarity, URINE: 0.35 ± 0.01#

## N[C@@H](CSSC[C@H](N)C(=O)O)C(=O)O [cystine]
[3]
  solubility of cystine in average normal urine: 200 to 400 µg/mL

## CC(S)C(=O)NCC(=O)O (stereo not shown) [tiopronin]
[1]
  molar proportion of cystine dissolved per drug, buffer: 0.41±0.02 mole/mole
  Regression slope of cystine uptake on drug molarity, BUFFER: 0.41 ± 0.02#
[2]
  molar proportion of cystine dissolved per drug, urine: 0.36±0.01 mole/mole
  Regression slope of cystine uptake on drug molarity, URINE: 0.36 ± 0.01
